From ChEMBL document CHEMBL1201862, “PubChem BioAssay data set” (2004)
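How tested: cells in 96-well plates exposed to compound for 48 hours at five concentrations. GI50 = concentration required for 50% inhibition of growth.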 The source made the active and inactive calls. No stated cut-off is given here; in the data, active = GI50 up to about 1.1 µM and inactive = higher.

Key:
Test in all cases: DTP human tumour cell line panel, 48 h
KM-20L2 = system: KM-20L2
XF498 = system: XF498
RXF 631 = system: RXF 631
LXFL 529 = system: LXFL 529
M19-MEL = system: M19-MEL
DLD-1 = system: DLD-1
DMS-273 = system: DMS-273
SNB-78 = system: SNB-78
HOP-18 = system: HOP-18

Measured: GI50

CN(C(=O)C12C3C4C1C1C4(C(=O)C45C6C7C4C4C5C6C74C)C3C12C)C(C)(C)C (stereo not drawn)
inactive: KM-20L2 31.2 µM | XF498 49 µM | RXF 631 34.6 µM | LXFL 529 37.8 µM | M19-MEL 45.9 µM | DLD-1 56.5 µM | DMS-273 53.6 µM | SNB-78 78.3 µM

COC(=O)C1CC2C=CC=CC(=O)C2(C)C1 (stereo not drawn)
inactive: KM-20L2 > 100 µM | LXFL 529 31.2 µM | M19-MEL 55.5 µM | DLD-1 15.6 µM | SNB-78 30.7 µM

COC(=O)NN1C(C)=C(C(=O)OC)C2(CCOC2=O)C1(C)O (stereo not drawn)
inactive: KM-20L2 > 100 µM | XF498 > 100 µM | RXF 631 > 100 µM | LXFL 529 > 100 µM | HOP-18 > 100 µM | DLD-1 > 100 µM | DMS-273 > 100 µM | SNB-78 > 100 µM

CCOC(=O)C(=O)/C=C(\C)Nc1c(NC2OCC(OC(C)=O)C(OC(C)=O)C2OC(C)=O)nc(SC)[nH]c1=O (stereo not drawn)
inactive: KM-20L2 > 100 µM | XF498 > 100 µM | LXFL 529 > 100 µM | M19-MEL > 100 µM | HOP-18 > 100 µM | DLD-1 > 100 µM | DMS-273 > 100 µM

CC(C)N(C(=O)C12C3C4C1C1C2C3C41C(O)C(C)(C)C)C(C)C (stereo not drawn)
inactive: KM-20L2 > 50 µM | XF498 > 50 µM | LXFL 529 > 50 µM | M19-MEL > 50 µM | DMS-273 > 50 µM | SNB-78 > 50 µM

CC(C)(CN1CCCCC1)C(=O)/C=C/c1ccc(Cl)c(Cl)c1
inactive: RXF 631 1.72 µM | LXFL 529 1.46 µM | M19-MEL 1.63 µM | HOP-18 1.52 µM | DLD-1 1.67 µM | DMS-273 1.69 µM | SNB-78 1.51 µM

Cc1cc2c(c(C#N)c1C)NC(=O)C(CC(=O)O)C2=O (stereo not drawn)
inactive: KM-20L2 > 100 µM | XF498 > 100 µM | RXF 631 > 100 µM | LXFL 529 > 100 µM | M19-MEL > 100 µM | HOP-18 > 100 µM | DLD-1 > 100 µM | DMS-273 > 100 µM | SNB-78 > 100 µM

O=C(Cn1cc(I)c(C(=O)NCC(O)CO)n1)NCC(O)CO (stereo not drawn)
inactive: KM-20L2 > 100 µM | XF498 > 100 µM | LXFL 529 > 100 µM | M19-MEL > 100 µM | HOP-18 > 100 µM | DLD-1 > 100 µM | DMS-273 > 100 µM | SNB-78 > 100 µM

CC(C)(C)c1cc(C(=O)O)c(C(c2ccccc2)c2ccccc2C(=O)O)c(C(=O)O)c1 (stereo not drawn)
inactive: KM-20L2 > 100 µM | XF498 > 100 µM | LXFL 529 > 100 µM | HOP-18 > 100 µM | DLD-1 > 100 µM | DMS-273 > 100 µM | SNB-78 > 100 µM

Nc1ccc(C(=O)N/C(=C\c2cccc([N+](=O)[O-])c2)c2nc3ccccc3[nH]2)cc1
inactive: KM-20L2 > 87.1 µM | XF498 23.5 µM | LXFL 529 29.4 µM | M19-MEL > 100 µM | DLD-1 66.8 µM | DMS-273 55.2 µM | SNB-78 57.3 µM

Cc1ccc(NC(=O)CC2SC(Nc3ccc(Cl)cc3)=NC2=O)cc1C (stereo not drawn)
inactive: KM-20L2 19.1 µM | LXFL 529 19.5 µM | M19-MEL 17.7 µM | HOP-18 18.5 µM | DLD-1 18.9 µM | DMS-273 19.7 µM | SNB-78 21.1 µM

CC1(C)O[C@@H](CC/C=C/CO)[C@H](CC/C=C/CO)O1
inactive: KM-20L2 > 100 µM | XF498 > 100 µM | LXFL 529 > 100 µM | M19-MEL > 100 µM | HOP-18 > 100 µM | DLD-1 > 100 µM | DMS-273 > 100 µM | SNB-78 > 100 µM

CC(C)NCCNC(=O)c1ccccc1Nc1c(Cl)cccc1Cl
inactive: KM-20L2 2.73 µM | XF498 2.92 µM | LXFL 529 16.9 µM | M19-MEL 8.38 µM | DLD-1 13 µM | DMS-273 13.2 µM | SNB-78 14.6 µM

O=C(O)C(C(=O)C(=O)C(C(=O)O)c1ccc(Cl)cc1)c1ccc(Cl)cc1 (stereo not drawn)
inactive: KM-20L2 3.31 µM | XF498 2.43 µM | LXFL 529 2.52 µM | M19-MEL 3.39 µM | HOP-18 5.32 µM | DLD-1 3.52 µM | DMS-273 3.64 µM | SNB-78 3.27 µM

O=C(/C=C\c1cccc2ccccc12)c1ccc(F)cc1
inactive: KM-20L2 16.6 µM | LXFL 529 17.1 µM | M19-MEL 19.6 µM | HOP-18 14.3 µM | DLD-1 19.1 µM | DMS-273 15.2 µM | SNB-78 19.8 µM

CCCCCCCCCCCCCC(=O)CC(=O)c1c(O)cccc1O
inactive: KM-20L2 47.4 µM | XF498 24.5 µM | LXFL 529 35.2 µM | M19-MEL 30.5 µM | HOP-18 33.3 µM | DLD-1 41.6 µM | DMS-273 22.1 µM | SNB-78 32.3 µM

O=C(O)CCN(CCCN(CCC(=O)O)CCC(=O)O)CCC(=O)O
inactive: KM-20L2 > 100 µM | XF498 > 100 µM | RXF 631 > 100 µM | LXFL 529 > 100 µM | M19-MEL > 100 µM | HOP-18 > 100 µM | DLD-1 > 100 µM | DMS-273 > 100 µM

C[Si](C)(C)CN1C(=O)c2ccccc2C1(O)c1ccccc1 (stereo not drawn)
inactive: KM-20L2 > 100 µM | XF498 73.8 µM | RXF 631 88.9 µM | LXFL 529 93.1 µM | HOP-18 > 100 µM | DLD-1 > 100 µM | DMS-273 56.6 µM | SNB-78 > 83.9 µM

N#C/C(N)=N/c1ccccc1
inactive: KM-20L2 > 100 µM | RXF 631 > 100 µM | LXFL 529 > 100 µM | M19-MEL > 100 µM | HOP-18 > 100 µM | DLD-1 > 100 µM | DMS-273 > 100 µM

CC(=O)C=C1Nc2ccccc2N1
inactive: KM-20L2 > 100 µM | XF498 > 100 µM | RXF 631 > 100 µM | LXFL 529 > 100 µM | M19-MEL > 100 µM | DLD-1 > 100 µM | SNB-78 > 100 µM

CN(C)CC1CCCC(CN2CCCCC2)C1=O (stereo not drawn)
inactive: KM-20L2 19.6 µM | M19-MEL 18.8 µM | HOP-18 2.02 µM | DLD-1 2.98 µM | DMS-273 22.1 µM | SNB-78 7.71 µM

CCCN/C(N)=N/C#N
inactive: KM-20L2 34.7 µM | LXFL 529 76.6 µM | M19-MEL 77.6 µM | HOP-18 > 100 µM | DLD-1 66.8 µM | DMS-273 62.1 µM | SNB-78 > 100 µM

CC(=O)c1ccc(NC(=O)COC(=O)c2cccc3c(=O)c4ccccc4[nH]c23)cc1
inactive: KM-20L2 > 100 µM | XF498 23.1 µM | RXF 631 20.6 µM | LXFL 529 21.9 µM | M19-MEL 25.5 µM | HOP-18 > 100 µM | DLD-1 54 µM | SNB-78 31.4 µM

COC(=O)C(=O)C1(CCC(C)=O)c2ccccc2-c2c(C)ccc(C)c21 (stereo not drawn)
inactive: KM-20L2 58.3 µM | LXFL 529 37.8 µM | M19-MEL 64 µM | HOP-18 56.4 µM | DLD-1 50.1 µM | DMS-273 31.6 µM | SNB-78 19 µM

COc1cccc(C=O)c1C(=O)c1cc(O)ccc1O
inactive: KM-20L2 > 100 µM | XF498 44.2 µM | M19-MEL 30.8 µM | HOP-18 25.1 µM | DLD-1 16.3 µM | DMS-273 > 58.7 µM | SNB-78 > 45.9 µM

C=C1C(=O)c2cc3c(cc2C(c2cc(OC)c(OC)c(OC)c2)[C@@H]1C(=O)O)OCO3 (stereo partly drawn)
inactive: LXFL 529 51.5 µM | M19-MEL 49.1 µM | HOP-18 > 100 µM | DLD-1 55.3 µM | DMS-273 > 10 µM | SNB-78 49.1 µM
